Measured values from US20050003029A1, “UTILIZATION OF RUTINS AND AESCINS IN THE TREATMENT OF OCULAR CIRCULATORY DISTURBANCES” (priority 2001, published 2005).

System: retinal hemorrhages and vascular leakages
Assay: Efficacy case examples: oral therapy of patients with retinal hemorrhages and vascular leakages, detected by fluorescence angiography
Type: in vivo, human
Details: orally daily
Excerpt: (§1) patient with severe visual impairment.
2 relatively small intraretinal hemorrhages on the retina existed, further 8 vascular leakages stainable with fluorescein sodium and detectable using fluorescence angiography. The finding existed for 4 months with the tendency to worsen. The basic disease present was a generalized sclerotic vascular complaint.
patient with suddenly commencing visual impairment, which had existed for 5 months.
A relatively large intraretinal strip hemorrhage existed as a result of a branch vein thrombosis, further 3 vascular leakages detectable by fluorescence angiography. The basic disease present was latent diabetes mellitus.
as §1
1 relatively large and 2 smaller retinal hemorrhages existed; further three vascular leakages which were detectable using fluorescence angiography. The basic disease was a generalized vascular complaint. The finding existed for 5 months with the tendency for increasing worsening.
as §1
A large subretinal hemorrhage existed, further 2 vascular leakages detectable by fluorescence angiography. A risk factor to be seen was the taking for years of a hormonal anticontraceptive.

For `CC1OC(OCC2OC(Oc3c(-c4ccc(OCCO)c(OCCO)c4)oc4cc(OCCO)cc(O)c4c3=O)C(O)C(O)C2O)C(O)C(O)C1O` (stereo not drawn) [troxerutin, 3′,4′,7-tris-O-(β-hydroxyethyl)rutin], the leakages sealed (Case example 1, after 2 weeks) was 1 leakages, the “leakages sealed (total)” value (Case example 1, after 4 weeks) was 3 leakages and the “intraretinal hemorrhages (status)” value (Case example 1, four-week therapy, 2 relatively small hemorrhages) was “unchanged”. The “vascular leakages (status)” value (Case example 2, three-week therapy, 3 leakages before) was “unchanged”, the “resorption of intraretinal strip hemorrhage” value (Case example 2, three-week therapy, measured by the starting size) was 10% and the “resorption of a small hemorrhage” value (Case example 3, patient, three-week therapy) was “low-grade beginning of resorption”. The leakages sealed (Case example 3, three-week therapy) was 1 leakages, the leakages sealed (Case example 4, 2 leakages before) was 1 leakages and the “resorption of the large subretinal hemorrhage” value (Case example 4, combination three weeks, measured by the starting size) was “approximately 5%”.
